Results reported in US11491100B2, “Dermal composition comprising chelator and base” (Primal Therapies, Inc., priority 2013, dated 2022).
Like-named read-outs stand apart in the source and are kept apart here.

Assay: Ranking of candidate chelator and base agents by potency score
Set-up: key: 1 = most desired, 3 = least desired
From the text: Methods of selecting base and chelator compositions depend on use. Compositions may be determined by ranking base, chelator and enhancer agents, from most desired to least desired, for multiple parameters such as safety, solubility, compatibility, pH, potency, taste, consistency, smell and others.
Non-toxic chelator and base compositions may be ranked according to the desired parameters of potency and approved-for-oral-consumption. A desired parameter such as potency for a candidate chelator or base may be given a score of “1” for most desired and a score of “3” for least desired. In one embodiment, candidate chelators, bases and enhancers may be ranked by FDA approval for oral consumption. Agents with a score of “1” may have approval for the desired indication and a score of “3” may not have approval or may not be approved for the desired indication. The resultant overall score may be tabulated and may be used to facilitate selection.
Microbes were cultured in growth media and plated at 10^3 CFU/well in a 96 well microtiter plate and cultured for 24 h. Wells were then treated with 10-50 μL of media only as control or with media+chelator agents, base agents, acid agents, neutral agents or enhancer agents for 30 min at RT followed by repleation in […] of fresh RPMI pH 7.2. Plates were then incubated for an additional 48-72 h prior to harvest. Wells were washed 3× in PBS and residual biofilm was stained using crystal violet. Wells were washed 4× in PBS and the amount of retained stain was measured. […] Synergistic effects were evaluated and numerous compounds were examined for their ability to synergistically act with chelators to inhibit biofilm formation (examples of some test compounds analyzed for synergy with chelators are presented in Table 2).
Screens of base components to use in compositions comprising chelator were performed. Briefly, the pH of S. mutans cultures were measured 24 and 48 hr post administration of chelator and candidate base components. Combinations of chelator, base and enhancer agents were also evaluated for affecting metabolic activity and/or metabolism of S. mutans (FIG. 3).

[1] = chelators that may be used in combination with base agents
[2] = base agents that may be used in combination with chelators

Molecule	POTENCY (score 1-3) [1]	POTENCY (score 1-3) [2]	also measured
COc1cc(/C=C/C(=O)CC(=O)/C=C/c2ccc(O)c(OC)c2)ccc1O [Curcumin]	2		
OC[C@H]1O[C@H](O[C@H]2[C@H](O)[C@@H](O)[C@H](O)O[C@@H]2CO)[C@H](O)[C@@H](O)[C@@H]1O [D-maltose]		1	
O=S(=O)(O)CC(S)CS (centres unmarked) [DMPS]	1		
O=C(O)[C@@H](S)[C@@H](S)C(=O)O [DMSA]	1		
CC(=O)N(O)CCCCCNC(=O)CCC(=O)N(O)CCCCCNC(=O)CCC(=O)N(O)CCCCCN [Deferasiroxamine B]	1		
O=P([O-])([O-])O.[Ca+2] [Dibasic calcium phosphate]		3	
O=C(O[C@@H]1Cc2c(O)cc(O)cc2O[C@@H]1c1cc(O)c(O)c(O)c1)c1cc(O)c(O)c(O)c1 [EGCG]	1		
O=C(O)CN(CCOCCOCCN(CC(=O)O)CC(=O)O)CC(=O)O [EGTA]	1		
NC(N)=Nc1nc(CSCCC(N)=NS(N)(=O)=O)cs1 [Famotidine, reference compound]		1	
O=P(O)(O)O[C@H]1[C@H](OP(=O)(O)O)[C@@H](OP(=O)(O)O)[C@H](OP(=O)(O)O)[C@@H](OP(=O)(O)O)[C@H]1OP(=O)(O)O [Inositol hexaphosphate]	2		
NCCCC[C@H](N)C(=O)O [Lysine]			POTENCY (score 1-3): 2
Cc1ncc(COP(=O)(O)O)c(C=O)c1O [Pyridoxal-5-phosphate]		1	
Cc1ncc(CO)c(CN)c1O [Pyridoxamine]		1	
Cc1ncc(CO)c(CO)c1O [Pyridoxine]		1	
O=c1c(O)c(-c2ccc(O)c(O)c2)oc2cc(O)cc(O)c12 [Quercetin]	1		
CNC(=C[N+](=O)[O-])NCCSCc1ccc(CN(C)C)o1 [Remitidine, reference compound]		1	

Molecule	POTENCY (score 1-3) [1]	POTENCY (score 1-3) [2]	also measured
Oc1ccc(C=Cc2cc(O)cc(O)c2)cc1 [Resveratrol]	2		
CC(=O)N(O)CCC[C@@H]1NC(=O)[C@H](CCCN(O)C(C)=O)NC1=O [Rhodotorulic acid]	1		
O=C(OC[C@H]1O[C@@H](OC(=O)c2cc(O)c(O)c(OC(=O)c3cc(O)c(O)c(O)c3)c2)[C@H](OC(=O)c2cc(O)c(O)c(OC(=O)c3cc(O)c(O)c(O)c3)c2)[C@@H](OC(=O)c2cc(O)c(O)c(OC(=O)c3cc(O)c(O)c(O)c3)c2)[C@@H]1OC(=O)c1cc(O)c(O)c(OC(=O)c2cc(O)c(O)c(O)c2)c1)c1cc(O)c(O)c(OC(=O)c2cc(O)c(O)c(O)c2)c1 [Tannic acid]	1		
OCN(CO)CO [Tris (hydroxymethyl) amine]		2	
NC(CO)(CO)CO [Tris amine]		2	
O=c1cc[nH]c(=O)[nH]1 [Uracil]		3	
Anachelins	1		
Chlorophylls	1		
Cyclodextrins	1		
Deferoxamines	1		
Ferrioxamines	1		
Lysozyme		1	
Vitamin B12	1	2	
Vitamin K		1	
protamine sulfate		2	
